Reference: patent US20160243198A1, “Pharmaceutical Composition for Preventing or Treating Osteoporosis Which Comprises Neuropeptide Y as Active Ingredient” (KYUNGPOOK NATIONAL UNIVERSITY INDUSTRY-ACADEMIC COOPERATION …, priority 2013, published 2016)
Entries after “also recorded” stand apart in the source; their conditions may differ.

Key:
[1] = test system: haematopoietic stem cell adhesion factors (Sdf-1a, Kit1, Angpt1, IL7, Vcam1, and Spp1) present in the osteoblasts; assay: Expression of haematopoietic stem cell adhesion factors in osteoblasts treated with neuropeptide Y (real-time quantitative PCR); assay type: cell-based, C57BL/6 mice; conditions: neuropeptide Y 0, 1, and 5 nM for 3 days; compared to untreated osteoblasts (control); p<0.05, n=3
Description: (§1) Neuropeptide Y, a Y1 agonist, and a Y1 antagonist were purchased from Bache, and used. To perform an in vitro experiment, 1 nM NPY, and 5 nM NPY were diluted with a medium, and injected. For the in vivo experiment, a total of 15 mice (three mice in each group) were also anesthetized with a mixed solution of 100 mg/kg ketamine and 10 mg/kg xylazine, and 50 μg/kg of either neuropeptide Y, Y1 agonist, or Y1 antagonist, and 100 μl of PBS (Gibco) were injected through the tail veins of the mice.
Four- to six-week-old C57BL/6 mice were anesthetized, and sacrificed, and their tibias and femurs were incised. […]
(§2) To measure expression levels of haematopoietic stem cell adhesion factors (Sdf-1a, Kit1, Angpt1, IL7, Vcam1, and Spp1) present in the osteoblasts, a real-time quantitative polymerase chain reaction (PCR) method was used.
(§3) A total of RNAs were extracted from a cell lysate and bone marrow cells using an RNeasy Plus Mini kit (Qiagen, Korea, Ltd), and cDNA was synthesized from a total of 5 μg of RNA using a kit commercially available from Clontech (Mountain View, Calif.). Also, real-time quantitative PCR, which included denaturation at 95° C. for 10 minutes; and 40 cycles with one cycle consisting of denaturation at 95° C. for 10 seconds, annealing at 58° C. for 15 seconds, and extension at 72° C. for 20 seconds, was performed using a Corbett research RG-6000 real-time PCR machine. […]

[2] = test system: bone-marrow haematopoietic stem cells; assay: Flow cytometry analysis (FAC) of bone-marrow haematopoietic stem cells; assay type: in vivo, mice; conditions: 50 μg/kg; bone marrow after 60 minutes; compared to PBS; p<0.05, n=3
Description: To determine whether there is a change in the number of the bone-marrow haematopoietic stem cells present in the bone marrows from the mice, NPY and PBS were injected to normal mice. After 60 minutes, the bone marrows were collected, and analyzed by flow cytometry analysis (FAC) using five antibodies Lineage, Sca-1, c-kit, CD48, and CD150, which were markers for the bone-marrow haematopoietic stem cells.
To analyze the bone-marrow haematopoietic stem cells, the bone marrows collected from the tibias and femurs of 4- to 6-week-old C57BL/6 mice was added in an ammonium chloride solution (Stem Cell Technologies, Inc. 1:4) to remove red blood cells. Thereafter, the red blood cells were washed with a PBS (Gibco) solution supplemented with 10% fetal bovine serum (FBS, Gibco) and 1% sodium azide (Sigma-Aldrich), and then centrifuged at 300×g for 10 minutes. Hemoblasts included in the bone marrow were removed with MAC beads (MiltenyiBiotec) using a biotinylated lineage antibody (MiltenyiBiotec), and the remaining cells were reacted with Sca-1-PECY7, c-kit-APC, CD150-PE, CD48-FITC (BD Science) antibodies at 4° C. for 30 minutes, and then analyzed using an LSRII (BD Science) flow cytometer.
First, normal mice were divided into two groups (three mice in each group), and 50 μg/kg of neuropeptide Y and 100 μl of PBS (Gibco) were administered to the mice. […]

[3] = test system: bone-marrow haematopoietic stem cell adhesion factors; assay: Expression of bone-marrow haematopoietic stem cell adhesion factors in bone marrow after tail-vein injection (real-time quantitative PCR); assay type: in vivo, mice; conditions: 50 μg/kg through the tail veins; bone marrow taken after 60 minutes; p<0.05, n=3
Description: as §1, §2, §3

[4] = test system: bone-marrow haematopoietic stem cells and bone-marrow hematopoietic progenitor cells; assay: Competitive transplantation assay; assay type: in vivo, mice
Description: As an experimental method capable of determining the migration of bone-marrow haematopoietic stem cells and bone-marrow hematopoietic progenitor cells present in the bone marrows of the mice into blood, a competitive transplantation assay were performed.
(§4) A mixture of bone marrow cells (2×10^6) of Ly5.2 (C57BL/6) donor mice and bone marrow cells (2×10^6) of Ly5.1 (BoyJ) mice was injected to recipient mice whose whole bodies were exposed to 10 Gy irradiations (2×5 Gy) through the tail veins thereof. On the week 8 of transplantation of the bone marrow cells, blood was drawn from the recipient mice, and analyzed by an LSR II (BD science) flow cytometer using CD45.1-PE (BD Science), and CD45.2-FITC (BD Science) antibodies. Repopulating units (RU) are indicated using a calculation method represented by the following Equation 1.
Repopulating unit (RU)=(20×CD45.2%)/(100−CD45.2%) [Equation 1]
as §4, with “([…])” for “(2×10^6)”, “Repopulating units (RU) are indicated using a calculation method represented by the following Equation 1.” left out

osteoporosis model = assay: Osteoporosis model (ovariotomy) and control model, micro-CT of femurs; assay type: in vivo, C57BL/6 female mice; conditions: for entire bone density in micro-CT images: compared to PBS
Description: Also, a total 6 female mice (three mice in each group), 12 weeks old, were subjected to an ovariotomy to establish an osteoporosis model. After a week, 50 μg/kg of neuropeptide Y and 100 μl of PBS (Gibco) were abdominally administered twice a day to the female mice at an interval of 12 hours for 3 weeks. As the control, a total 6 female mice (three mice in each group) were subjected to […] to establish a Sham model for osteoporosis. In this case, 100 μl of PBS or 50 μg/kg of neuropeptide Y was abdominally administered. […] To measure a bone density (bone volume/total volume) and a trabecular thickness, volume fractions with 2.5×0.5×0.5 mm^3 in the same portions of the femurs in each group were measured using Siemens Inveon software. First, three C57BL/6 female mice in each group, 12 weeks old, were subjected to an ovariotomy to establish an osteoporosis model. After a week, 50 μg/kg of neuropeptide Y and 100 μl of PBS (Gibco) were abdominally administered twice a day to the female mice at an interval of 12 hours for 3 weeks. As the control, the normal mice which were subjected to subcutaneous incision alone and into which 100 μl of PBS and 50 μg/kg of neuropeptide Y were abdominally administered were used. On the 22nd day, the femurs of the mice were isolated, and refrigerated in 80% ethanol, and the bone density and the trabecular thickness were then measured using micro CT.

[5] = test system: bone-marrow hematopoietic progenitor cells in blood; assay: Colony-forming cell (CFC) assay of blood after tail-vein injection; assay type: in vivo, mice; conditions: 50 μg/kg tail vein; after 60 minutes of injection (of 15 minutes, 60 minutes, 12 hours)
Description: as §1
A colony-forming cell (CFC) assay was performed to measure the number of bone-marrow hematopoietic progenitor cells in blood from mice.
First, the mice were anesthetized, and 500 μl to 700 μl of blood was drawn from the hearts of the mice, and collected in a heparin tube. Thereafter, the collected blood was added to an ammonium chloride solution (Stem Cell Technologies, Inc. 1:10), and kept in ice for 15 minutes to remove red blood cells. The blood was shaken at intervals of 2 to 3 minutes to sufficiently remove the red blood cells, and centrifuged at 1,000 rpm for 7 minutes. […] Then, colonies formed on the flask were counted. […]
To examine an effect of the activation of the neuropeptide Y receptor on the release of the bone marrow precursor cells into the blood, the colony number of the bone marrow precursor cells was also counted using a CFC assay as described in Example 1-4. […]

S1P receptor = conditions: administered so as to reduce the number of the osteoclasts in the bone marrow; cited from earlier work
[6] = osteoporotic (OVX) mice, 50 μg/kg abdominally twice a day for 3 weeks, versus PBS, n=3

| Compound | expression levels of Sdf-1a, Kit1, and Angpt1 in osteoblasts [1] | bone-marrow haematopoietic stem cells labeled with Lin−, Sca-1+, c-kit+, CD48−, and CD150+ in the bone marrow [2] | expression levels of the adhesion factors Sdf-1a, Kit1, Angpt1, and Vcam1 in bone marrow [3] | number of the haematopoietic stem cells (CD45.2+ cells) in the bone marrows of injected mice ([4]; compared to bone marrows of mice into which PBS was injected) | ratio of the CD45.2+ cells ([4]; donor bone marrow of injected mice mixed with Ly5.1 bone marrow, recipient blood 8 weeks after transplantation, compared to PBS) | entire bone density in micro-CT images (osteoporosis model; control (Sham) model, 50 μg/kg abdominally) | decrease in bone density and trabecular thickness of the osteoporotic mice (osteoporosis model; long-term administration in the osteoporosis model) | entire bone density in micro-CT images (osteoporosis model; osteoporotic (OVX) mice, 50 μg/kg abdominally twice a day for 3 weeks) | bone density (BV/TV, %) (osteoporosis model; [6]) | trabecular thickness (mm) (osteoporosis model; [6]) | colony number of the bone-marrow hematopoietic progenitor cells released into the blood [5] | bone formation (S1P receptor) |
| --- | --- | --- | --- | --- | --- | --- | --- | --- | --- | --- | --- | --- |
| neuropeptide Y | decreased in a ration-dependent manner | decreased in the bone marrow | decreased; also recorded: generally reduced | lower | reduced | higher entire bone density; also recorded: increased | inhibited | higher entire bone density; also recorded: remarkably increased | higher | higher | largest colony number | – |
| CCCCCCCCc1ccc(CCC(N)(CO)CO)cc1 [FTY720] | – | – | – | – | – | – | – | – | – | – | – | increases |
| CCCCCCCCCCCCC/C=C/[C@@H](O)[C@@H](N)COP(=O)(O)O [sphingosine-1-phosphate] | – | – | – | – | – | – | – | – | – | – | – | increases |
